For eleven compounds, IC50 and LD50 results are on record in ChEMBL document CHEMBL4613209, “Quinolone hybrids and their anti-cancer activities: An overview” (Eur J Med Chem, 2019).

≈ marks a conversion by molar mass, not a printed value.

The test system of series [1] is K562. The series can be described thus: Anticancer activity against human K562 cells. The class given is functional, cell-based.
The subject of series [2] is HCT-116. The series can be described thus: Cytotoxicity against human HCT116 cells assessed as reduction in cell viability by SRB assay. The class given is functional, cell-based.
For series [3], the system named is MCF7. Kind of series: Cytotoxicity against human MCF7 cells assessed as reduction in cell viability by SRB assay. The class given is functional, cell-based. A general note: Sulforhodamine B stains cellular protein and so reports cell mass.
Series [4] deals with L1210. Kind of series: Cytotoxicity against mouse L1210 cells assessed as reduction in cell viability by MTT assay. The class given is functional, cell-based. A general note: Tetrazolium assays rely on reduction of a dye to a coloured formazan, in cell work by metabolically active cells.
In series [5] the test system is SMMC-7721. Kind of series: Cytotoxicity against human SMMC7721 cells assessed as reduction in cell viability by MTT assay. The class given is functional, cell-based.
Series [6] relates to HL-60. The series can be described thus: Cytotoxicity against human HL60 cells assessed as reduction in cell viability by MTT assay. The class given is functional, cell-based.
Series [7] deals with CHO. Kind of series: Cytotoxicity against CHO cells assessed as reduction in cell viability by MTT assay. The class given is cell-based. The conditions noted are these: Cricetulus griseus.
Series [8] has as its system HL-60. Kind of series: Anticancer activity against human HL60 cells by MTT assay. The class given is functional, cell-based.
The test system of series [9] is A549. Kind of series: Anticancer activity against human A549 cells by MTT assay. The class given is functional, cell-based.
Series [10] concerns HeLa. The series can be described thus: Anticancer activity against human HeLa cells by MTT assay. The class given is functional, cell-based.
The subject of series [11] is HepG2. The series can be described thus: Anticancer activity against human HepG2 cells by MTT assay. The class given is functional, cell-based.
The subject of series [12] is HT-29. Kind of series: Anticancer activity against human HT-29 cells by MTT assay. The class given is functional, cell-based.
The subject of series [13] is PC-3. Kind of series: Cytotoxicity against human PC3 cells assessed as reduction in cell viability after 48 hrs by SRB assay. The following applies: PC-3, 48 h. The class given is functional, cell-based.
Series [14] concerns DU-145. The series can be described thus: Cytotoxicity against human DU145 cells assessed as reduction in cell viability after 48 hrs by SRB assay. The class given is functional, cell-based. The conditions noted are these: DU-145, 48 h.
Series [15] concerns Hep 3B2. The series can be described thus: Anticancer activity against human Hep3B cells after 48 to 72 hrs by MTT assay. The class given is functional, cell-based.
The test system of series [16] is K562. The series can be described thus: Anticancer activity against human K562 cells after 48 to 72 hrs by MTT assay. The class given is functional, cell-based.
The subject of series [17] is HT-1080. Kind of series: Cytotoxicity against human HT1080 cells assessed as reduction in cell viability. The class given is functional, cell-based.
Series [18] concerns SW1990. Kind of series: Cytotoxicity against human SW1990 cells assessed as reduction in cell viability by MTT assay. The class given is functional, cell-based.
For series [19], the system named is HUVEC. Kind of series: Cytotoxicity against human HUVEC cells assessed as reduction in cell viability by MTT assay. The class given is cell-based.
Series [20] can be described thus: Toxicity in mouse xenografted with human MB-9812 cells. On the technique in general: In xenograft studies the graft and the host belong to different species.
Series [21] has as its system PANC-1. The series can be described thus: Anticancer activity against human PANC1 cells after 48 hrs by SRB assay. The conditions noted are these: PANC-1, 48 h. The class given is functional, cell-based.
Series [22] has as its system HeLa. The series can be described thus: Anticancer activity against human HeLa cells after 48 hrs by SRB assay. The class given is functional, cell-based.
Series [23] concerns MDA-MB-231. Kind of series: Cytotoxicity against human MDA-MB-231 cells assessed as reduction in cell viability after 48 hrs by MTT assay. The class given is functional, cell-based. The following applies: MDA-MB-231, 48 h.
The subject of series [24] is MCF7. Kind of series: Anticancer activity against human MCF7 cells after 48 hrs by SRB assay. The class given is functional, cell-based. The conditions noted are these: MCF7, 48 h.
Series [25] is described as follows: Toxicity in mouse xenografted with human CX-1 cells. The following applies: in vivo.
Series [26] concerns HCT-116. The series can be described thus: Anticancer activity against human HCT116 cells after 48 hrs by SRB assay. The conditions noted are these: HCT-116, 48 h. The class given is functional, cell-based.
Series [27] has as its system SK-OV-3. Kind of series: Anticancer activity against human SKOV3 cells after 48 hrs by SRB assay. The class given is functional, cell-based. The conditions noted are these: SK-OV-3, 48 h.
For series [28], the system named is HL-60. The series can be described thus: Anticancer activity against human HL60 cells after 48 hrs by SRB assay. The class given is functional, cell-based. The following applies: HL-60, 48 h.
For series [29], the system named is MCF7-DOX. Kind of series: Anticancer activity against human MCF7/Dox cells after 48 hrs by SRB assay. The class given is functional, cell-based.
Series [30] concerns DU-145. The series can be described thus: Anticancer activity against human DU145 cells after 48 hrs by SRB assay. The class given is functional, cell-based. The following applies: DU-145, 48 h.
For series [31], the system named is T47D. The series can be described thus: Cytotoxicity against human T47D cells assessed as reduction in cell viability after 48 hrs by MTT assay. The class given is functional, cell-based.
Series [32] has as its system MCF7. The series can be described thus: Cytotoxicity against human MCF7 cells assessed as reduction in cell viability after 48 hrs by MTT assay. The conditions noted are these: MCF7, 48 h. The class given is functional, cell-based.
Series [33] relates to MCF7. The series can be described thus: Cytotoxicity against human MCF7 cells assessed as reduction in cell viability after 72 hrs by MTT assay. The following applies: MCF7, 72 h. The class given is functional, cell-based.
For series [34], the system named is HepG2. The series can be described thus: Anticancer activity against human HepG2 cells after 48 hrs by SRB assay. The conditions noted are these: HepG2, 48 h. The class given is functional, cell-based.
Series [35] concerns A549. The series can be described thus: Anticancer activity against human A549 cells after 48 hrs by SRB assay. The class given is functional, cell-based. The following applies: A549, 48 h.

As a reminder, the IC50 is the concentration that inhibits the measured activity by half. As for `NC(=O)c1cn([C@@H]2O[C@H](CO)[C@@H](O)[C@H]2O)c2ccc(Oc3ccccc3)cc2c1=O`, the IC50 in [1] was found to be 76.8 µM.
As to `N#Cc1c(N)c2cc(-c3nc4ccccc4o3)ccc2[nH]c1=O`, the half-inhibitory concentration (IC50) was determined as 35.7 nM in series [2] and 26.7 nM in [3].
For the compound `COc1ccc(-c2nnc(CSc3nnc(-c4cn(C5CC5)c5cc(N6CCN(C)CC6)c(F)cc5c4=O)o3)o2)cc1`, the IC50 in [4] was 1100 to 2800 nM; in series [5] it was 1.1 to 2.8 µM; in [6], 1100 to 2800 nM; in series [7], 1100 to 2800 nM.
For `N#Cc1c(N)c2cc(-c3nc4ccccc4s3)ccc2[nH]c1=O`, the values for the IC50 in series [2] and in series [3] were 61.6 nM and 74.8 nM, respectively.
For `CCOC(=O)c1cn(Cc2cn(-c3ccc(F)cc3)nn2)c2ccc(Cl)cc2c1=O`, the IC50 in [8], in [9], in series [10], in series [11] and in series [12] was 13.6 to 66 µM each time.
Consider `Cn1c(=O)cc(Cc2nnc3n2N=C(c2cc4ccccc4oc2=O)CS3)c2ccccc21`, for which the values for the 50% inhibitory concentration (IC50) in series [13] and in [14] were 43.3 µg/mL (≈ 95.1 µM) and 20.4 µg/mL (≈ 44.8 µM), respectively.
Turning to `C/C(=N\Nc1ccccc1)c1c(O)c2ccccc2n(-c2ccccc2)c1=O`, the IC50 in series [15] and in series [16] was under 10 µg/mL in each case.
Take `Cc1cc2c(n1-c1ccccc1)CCc1cc(S(=O)(=O)c3ccccc3)c(O)nc1-2`: in series [17], the IC50 is 0.4 to 3.6 µM.
As to `COc1ccc2cc3[n+](cc2c1OC)CCc1cc2c(cc1-3)OCO2` [BERBERINE], the 50% inhibitory concentration (IC50) in series [5], in series [18] and in series [19] was 18.3 to 65.6 µM each time.
For the compound `CC[C@H](CC[C@@H](C)[C@H]1CC[C@H]2[C@@H]3CC=C4C[C@@H](O)CC[C@]4(C)[C@H]3CC[C@]12C)C(C)C` [BETA-SITOSTEROL], the IC50 in [17] was 2.5 to 15.7 µM.
The LD50 is the dose at which mortality reaches 50%. Lower therefore signals greater toxicity. For `COc1cc([C@@H]2c3cc4c(cc3[C@@H](O[C@@H]3O[C@@H]5CO[C@@H](C)O[C@H]5[C@H](O)[C@H]3O)[C@H]3COC(=O)[C@H]23)OCO4)cc(OC)c1O` [ETOPOSIDE], the LD50 in series [20] and in [25] was 64 mg/kg throughout. Besides, the 50% inhibitory concentration (IC50) in series [21] is 2.91 to 50 µM; in series [22] it was 2.91 to 50 µM; in series [23], 11.8 to 15.7 µM; in [24] it was 2.91 to 50 µM; in [26], 2.91 to 50 µM; in series [27], 2.91 to 50 µM. Further, the IC50 was 2.91 to 50 µM in [28]; 2.91 to 50 µM in [29]; 2.91 to 50 µM in [30]; 11.8 to 15.7 µM in series [31]; 11.8 to 15.7 µM in series [32]; 2.91 to 50 µM in series [33]. In addition, the half-maximal inhibitory concentration (IC50) in [34] and in [35] was 2.91 to 50 µM throughout.
